Results on five compounds are retold here after paper PMC10653547, “Synergistic effect of two antimicrobial peptides, BP203 and MAP-0403 J-2 with conventional antibiotics against colistin-resistant Escherichia coli and Klebsiella pneumoniae clinical isolates” (PLOS ONE, 2023).

Assay [1] has as its system colistin-resistant E. coli clinical isolates. Kind of assay: Disk diffusion antimicrobial susceptibility testing (CLSI). The format is cell-based, Escherichia coli. As to conditions: for %Resistance: ten E. coli isolates, disk diffusion. On the procedure: (§1) Ten non-duplicate clinical isolates of colistin-resistant E. coli (EC) and ten non-duplicate clinical isolates of colistin-resistant K. pneumoniae (KP) were obtained from the bacterial repository of the Division of Infectious Diseases and Tropical Medicine, Department of Medicine, Faculty of Medicine Siriraj Hospital, Mahidol University. The species identification was conducted through standard biochemical tests. Antimicrobial susceptibility testing was carried out using the disk diffusion method following CLSI guidelines. Additionally, the assessment of colistin resistance in all isolates was performed by broth microdilution following CLSI recommendations. […] The amino acid sequences of BP203 and MAP-0403 J-2 were retrieved from previous studies. These peptides are BP100 and MAP-0403 analogs, respectively. […] Antibiotic disks and defibrinated sheep blood were obtained from Oxoid (Basingstoke, UK). All culture media were purchased from Becton Dickinson (Frankin Lakes, NJ, USA). All chemicals were obtained from Sigma-Aldrich (St. Louis, MO, USA).
A general note: In agar diffusion tests the substance spreads into inoculated agar from a disc or well.

The test system of assay [2] is colistin-resistant K. pneumoniae clinical isolates. The assay is described as above. It is filed as cell-based, Klebsiella pneumoniae. As to conditions: for %Resistance: ten K. pneumoniae isolates, disk diffusion. How it is done: as §1

Turning to `C[C@@H](O)[C@H]1C(=O)N2C(C(=O)O)=C(S[C@@H]3CN[C@H](C(=O)Nc4cccc(C(=O)O)c4)C3)[C@H](C)[C@H]12` [ETP, ertapenem], the “Interpreted results of disk diffusion” value in assay [1] (EC-01), in assay [1] (EC-02), in assay [1] (EC-03), in assay [1] (EC-04), in assay [1] (EC-05) and in assay [1] (EC-06) was “S” in each case. Also, the “Interpreted results of disk diffusion” value is “S” in assay [1] (EC-07); “S” in assay [1] (EC-08); “S” in assay [1] (EC-09); “S” in assay [1] (EC-10); “R” in assay [2] (KP-01); “R” in assay [2] (KP-02). Further, the “Interpreted results of disk diffusion” value in assay [2] (KP-03), in assay [2] (KP-04), in assay [2] (KP-05), in assay [2] (KP-06), in assay [2] (KP-07) and in assay [2] (KP-08) was “R” in each case. Besides, the “Interpreted results of disk diffusion” value in assay [2] (KP-09) and in assay [2] (KP-10) was “R” each time. Besides, the entries for the “%Resistance” value in assay [1] and in assay [2] were 0% and 100%, respectively.

As to `CO/N=C(\C(=O)N[C@@H]1C(=O)N2C(C(=O)[O-])=C(C[N+]3(C)CCCC3)CS[C@H]12)c1csc(N)n1` [FEP, cefepime], the “Interpreted results of disk diffusion” value in assay [1] (EC-01) is “R”; in assay [1] (EC-02) it was “R”; in assay [1] (EC-03) it was “R”; in assay [1] (EC-04), “R”; in assay [1] (EC-05), “SDD”; in assay [1] (EC-06) it was “S”. Moreover, the “Interpreted results of disk diffusion” value in assay [1] (EC-07) is given as “R”; in assay [1] (EC-08), “SDD”; in assay [1] (EC-09), “R”; in assay [1] (EC-10), “R”; in assay [2] (KP-01), “R”; in assay [2] (KP-02), “R”. The “Interpreted results of disk diffusion” value in assay [2] (KP-03), in assay [2] (KP-04), in assay [2] (KP-05), in assay [2] (KP-06), in assay [2] (KP-07) and in assay [2] (KP-08) was “R” in each case. Further, the “Interpreted results of disk diffusion” value in assay [2] (KP-09) and in assay [2] (KP-10) was “R” in each case. Also, the entries for the “%Resistance” value in assay [1] and in assay [2] were 70% and 100%, respectively.

On to `C[C@@H]1O[C@@H]1P(=O)(O)O` [FOS, fosfomycin], for which the “Interpreted results of disk diffusion” value in assay [1] (EC-01) is reported as “S”; in assay [1] (EC-02) it was “S”; in assay [1] (EC-03) it was “S”; in assay [1] (EC-04), “R”; in assay [1] (EC-05), “S”; in assay [1] (EC-06), “S”. In addition, the “Interpreted results of disk diffusion” value in assay [1] (EC-07) was “S”; in assay [1] (EC-08) it was “S”; in assay [1] (EC-09), “S”; in assay [1] (EC-10), “S”; in assay [2] (KP-01), “S”; in assay [2] (KP-02), “R”. The “Interpreted results of disk diffusion” value was “I” in assay [2] (KP-03); “R” in assay [2] (KP-04); “S” in assay [2] (KP-05); “R” in assay [2] (KP-06); “S” in assay [2] (KP-07); “R” in assay [2] (KP-08). Further, the “Interpreted results of disk diffusion” value in assay [2] (KP-09) and in assay [2] (KP-10) was “R” each time. In addition, the entries for the “%Resistance” value in assay [1] and in assay [2] were 10% and 60%, respectively.

Turning to `CO[C@@]1(NC(=O)Cc2cccs2)C(=O)N2C(C(=O)O)=C(COC(N)=O)CS[C@@H]21` [FOX, cefoxitin], the “Interpreted results of disk diffusion” value in assay [1] (EC-01) is listed as “S”; in assay [1] (EC-02), “S”; in assay [1] (EC-03), “S”; in assay [1] (EC-04), “I”; in assay [1] (EC-05), “S”; in assay [1] (EC-06), “S”. The “Interpreted results of disk diffusion” value in assay [1] (EC-07) is “S”; in assay [1] (EC-08), “S”; in assay [1] (EC-09), “S”; in assay [1] (EC-10), “S”; in assay [2] (KP-01), “R”; in assay [2] (KP-02) it was “R”. Further, the “Interpreted results of disk diffusion” value in assay [2] (KP-03), in assay [2] (KP-04), in assay [2] (KP-05), in assay [2] (KP-06), in assay [2] (KP-07) and in assay [2] (KP-08) was “R” each time. In addition, the “Interpreted results of disk diffusion” value in assay [2] (KP-09) and in assay [2] (KP-10) was “R” in each case. For the same compound, the “%Resistance” value in assay [1] is given as 0%; in assay [2] it was 100%.

For the compound `CNC(C)C1CCC(N)C(OC2C(N)CC(N)C(OC3OCC(C)(O)C(NC)C3O)C2O)O1` (centres unmarked) [GM, gentamicin], the “Interpreted results of disk diffusion” value in assay [1] (EC-01) is “R”; in assay [1] (EC-02) it was “S”; in assay [1] (EC-03) it was “R”; in assay [1] (EC-04), “R”; in assay [1] (EC-05), “R”; in assay [1] (EC-06) it was “R”. Moreover, the “Interpreted results of disk diffusion” value was “S” in assay [1] (EC-07); “R” in assay [1] (EC-08); “R” in assay [1] (EC-09); “R” in assay [1] (EC-10); “S” in assay [2] (KP-01); “R” in assay [2] (KP-02). Besides, the “Interpreted results of disk diffusion” value in assay [2] (KP-03), in assay [2] (KP-04), in assay [2] (KP-05), in assay [2] (KP-06), in assay [2] (KP-07) and in assay [2] (KP-08) was “S” each time. The “Interpreted results of disk diffusion” value in assay [2] (KP-09) and in assay [2] (KP-10) was “S” each time. Moreover, the results for the “%Resistance” value in assay [1] and in assay [2] were 80% and 10%, respectively.
